Patent US8815934B2, “2-Phenyl-1-[4-(2-Aminoethoxy)-Benzyl]-Indole and estrogen formulations” (Wyeth LLC, priority 1998, dated 2014)

Key:
Ishikawa cells = assay: Ishikawa cell alkaline phosphatase assay; assay type: cell-based, human; conditions: for ED50 of estrogenic activity by the alkaline phosphatase method: Ishikawa cells, 48 h treatment, reference standards; for % Activation (Ishikawa alkaline phosphatase) with 1 nM 17β-estradiol: compound + 1 nM 17β-estradiol (antiestrogen test); for % Activation (Ishikawa alkaline phosphatase): compound alone, percent of response related to 1 nM 17β-estradiol
Protocol: Cells were treated for 48 h prior to assay. […] Sample population for at each dose was n=8. […] Plates are placed at -80° C. for a minimum of […]. Plates are thawed at 37° C. followed by the addition of 150 μL of 0.1 M Tris-HCl, pH 9.8, containing 4 mM para-nitrophenylphosphate (pNPP) to each well (final concentration, 3 mM pNPP). Absorbance and slope calculations were made using the […] Application program (Bio-Tek Instruments, Inc., Winooski, Vt.). […] The four listed in the following were used as reference standards: A description of these methods is described by Holinka, […]., Kuramoto, H. and Gurpide, E. (1986) Effects of steroid hormones and antisteroids on alkaline phosphatase activity in human endometrial cancer cells (Ishikawa Line). Cancer Research, 46:2771-2774, and by […]. and […] simple and sensitive microtiter plate estrogen bioassay based on stimulation alkaline phosphatase in Ishikawa cells; […] Endocrinology, 6:2757-2762.

[1] = system: Immature Sprague-Dawley rats; assay: Rat uterotrophic/antiuterotrophic bioassay; assay type: in vivo; conditions: immature female rats, daily ip; for Uterine wt mg 100 uG cmpd + 1uG 17β-estradiol: 100 uG compound + 1 uG 17β-estradiol; for Uterine wt mg 100 uG cmpd: 100 uG compound, wet weight
Protocol: The estrogenic and antiestrogenic properties of the compounds were determined in an immature rat uterotrophic assay (4 day) that (as described previously by L. J. Black and R. L. Goode, Life Sciences, 26, 1453 (1980)). Immature Sprague-Dawley rats (female, 18 days old) were tested in groups of six. […] On day 4 the animals were sacrificed by CO2 asphyxiation and their uteri were removed and stripped of excess lipid, any fluid removed and the wet weight determined. A small section of one horn was submitted for histology and the remainder used to isolate total RNA in order to evaluate complement component 3 gene expression.

estrogen receptor [2] = target: T1, estrogen receptor (Homo sapiens (Human), UniProt P03372); assay: 2×VIT ERE infection luciferase assay; assay type: cell-based; conditions: for Infection Luciferase Activity, 1 uM + 17β estradiol: 1 uM compound + 1 nM 17β-estradiol (estrogen antagonism); for Infection Luciferase Activity, 1 uM: 1 uM compound alone, percentage of activity as compared to 17β-estradiol
T1 sequence (P03372 whole entry): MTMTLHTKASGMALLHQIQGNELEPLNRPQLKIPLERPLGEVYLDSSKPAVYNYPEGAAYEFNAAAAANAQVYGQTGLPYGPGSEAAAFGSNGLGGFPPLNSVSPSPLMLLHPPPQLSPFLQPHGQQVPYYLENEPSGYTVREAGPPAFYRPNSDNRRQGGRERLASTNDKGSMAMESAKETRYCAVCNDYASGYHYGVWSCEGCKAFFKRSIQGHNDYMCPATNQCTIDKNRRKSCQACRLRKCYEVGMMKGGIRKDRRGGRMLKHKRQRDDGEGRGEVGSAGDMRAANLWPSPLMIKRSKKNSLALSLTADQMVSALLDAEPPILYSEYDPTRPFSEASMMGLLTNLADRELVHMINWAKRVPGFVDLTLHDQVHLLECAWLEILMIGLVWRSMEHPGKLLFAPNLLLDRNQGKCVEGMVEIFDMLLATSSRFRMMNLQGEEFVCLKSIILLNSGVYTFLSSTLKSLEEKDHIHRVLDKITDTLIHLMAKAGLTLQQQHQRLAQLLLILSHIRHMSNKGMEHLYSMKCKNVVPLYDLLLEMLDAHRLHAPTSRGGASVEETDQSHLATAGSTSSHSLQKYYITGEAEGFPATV
Protocol: Chinese Hamster Ovary cells (CHO) which had been stably transfected with the human estrogen receptor were maintained in DMEM+10% fetal bovine serum (FBS). 48 h prior to treatment the growth medium was replaced with DMEM lacking phenol red+10% dextran coated charcoal stripped FBS (treatment medium). Cells were plated at a density of 5000 cells/well in 96-well plates containing 200 μL of medium/well.
Reporter DNA (Promega plasmid pGL2 containing two tandem copies of the vitellogenin ERE in front of the minimal thymidine kinase promoter driving the luciferase gene) was combined with the B-galactosidase expression plasmid pCH110 (Pharmacia) and carrier DNA (pTZ18U) in the following ratio:
20 uL of this mixture was added to each well of cells and remained on the cells for 16 h. […] Each treatment condition was performed on 8 wells (n=8) which were incubated for 24 h prior to the luciferase assay.
After removing the PBS, 25 uL of Promega lysis buffer was added to each well and allowed to stand at room temperature for 15 min, followed by 15 min at −80° C. and 15 min at 37° C. 20 uL of lysate was transferred to an opaque 96 well plate for luciferase activity evaluation and the remaining lysate (5 uL) was used for the B-galactosidase activity evaluation (normalize transfection). The luciferan substrate (Promega) was added in 100 uL aliquots to each well automatically by the luminometer and the light produced (relative light units) was read 10 seconds after addition.
To the remaining 5 uL of lysate 45 uL of PBS was added. Then 50 uL of Promega B-galactosidase 2× assay buffer was added, mixed well and incubated at 37° C. for 1 hour. A plate containing a standard curve (0.1 to 1.5 milliunits in triplicate) was set up for each experimental run. The plates were analyzed on a Molecular Devices spectrophotometric plate reader at 410 nm. The optical densities for the unknown were converted to milliunits of activity by mathematical extrapolation from the standard curve.
The luciferase data was generated as relative light units (RLUs) accumulated during a 10 second measurement and automatically transferred to a JMP (SAS Inc) file where background RLUs were subtracted. The B-galactosidase values were automatically imported into the file and these values were divided into the RLUs to normalize the data. The mean and standard deviations were determined from a n=8 for each treatment. […] These techniques are described by Tzukerman, M. T., Esty, A., Santiso-Mere, D., Danielian, P., Parker, M. G., Stein, R. B., Pike, J. W. and McDonnel, D. P. (1994). Human estrogen receptor transactivational capacity was determined by both cellular and promoter context and mediated by two functionally distinct intramolecular regions (see Molecular Endocrinology, 8:21-30).

estrogen receptor [3] = target: T1, estrogen receptor; assay: In vitro estrogen receptor binding assay; conditions: competition with [3H]17β-estradiol, cytosol of CHO cells overexpressing the estrogen receptor; for IC50: read-out: Receptor Binding IC50's
Protocol: CHO cells overexpressing the estrogen receptor were grown in 150 mm^2 dishes in DMEM+10% dextran coated charcoal, stripped fetal bovine serum. The plates were washed twice with PBS and once with 10 mM Tris-HCl, pH 7.4, 1 mM EDTA. Cells were harvested by scraping the surface and then the cell suspension was placed on ice. Cells were disrupted with a hand-held motorized tissue grinder using two, 10-second bursts. […] The cytosol was then frozen and stored at −80° C. Protein concentration of the cytosol was estimated using the BCA assay with reference standard protein.
100 uG/100 uL of the receptor preparation was aliquoted per well. […] The plate was incubated at room temperature for 2.5 h. […] 200 uL of the supernatant solution was then removed for scintillation counting. Samples were counted to 2% or 10 minutes, whichever occurs first.
Counts per minute (CPM) of radioactivity were automatically converted to disintegrated per minute (DPM) by the Beckman LS 7500 Scintillation Counter using a set of quenched standards to generate a H No. for each sample.
For the generation of IC50 curves, % binding is plotted vs compound. […] For a description of these methods, see Hulme, E. C., ed. […] Receptor-Ligand Interactions: A Practical Approach. IRL Press, New York. (see especially chapter 8).

Row | SMILES | Uterine wt mg 100 uG cmpd + 1uG 17β-estradiol [1] | Uterine wt mg 100 uG cmpd [1] | Infection Luciferase Activity, 1 uM + 17β estradiol (estrogen receptor [2]) | Infection Luciferase Activity, 1 uM (estrogen receptor [2]) | IC50 (estrogen receptor [3]) | also measured
1 | C[C@]12CC[C@@H]3c4ccc(O)cc4CC[C@H]3[C@@H]1CC[C@H]2O [17α-estradiol] | – | – | – | – | – | ED50 of estrogenic activity by the alkaline phosphatase method (Ishikawa cells): 1.42 nM
2 | Cc1c(-c2ccccc2)n(Cc2ccc(OCCN3CCCCC3)cc2)c2ccccc12 [No. 85, 4-{3-Methyl-1-[4-(2-piperidin-1-yl-ethoxy)-benzyl]-1H-indole}] | 92.4 mg | 41.1 mg | 43% | −2% | 450 nM | –
3 | Cc1c(-c2ccc(O)cc2)n(Cc2ccc(OCCN3CCCCCC3)cc2)c2ccc(O)cc12 [No. 98, 1-[4-(2-Azepan-1-yl-ethoxy)-benzyl]-2-(4-hydroxy-phenyl)-3-methyl-1H-indol-5-ol] | 27.9 mg | 29.4 mg | – | – | – | % Activation (Ishikawa alkaline phosphatase) with 1 nM 17β-estradiol (Ishikawa cells): 1% activity (1% with 1 nM 17β-estradiol); % Activation (Ishikawa alkaline phosphatase) (Ishikawa cells): 1% activity (1% with 1 nM 17β-estradiol)
4 | Cc1c(-c2ccc(O)cc2)n(Cc2ccc(OCC[N+](C)(C)C)cc2)c2ccc(O)cc12.[I-] [No. 106, 2-(4-Hydroxy-phenyl)-3-methyl-1-[4-(2-dimethyl-1-yl-ethoxy)-benzyl]-1H-indol-5-ol methiodide] | – | – | 81% | 10% | 100 nM | –
5 | Cc1c(-c2ccc3c(c2)OCO3)n(Cc2ccc(OCCN3CCCCC3)cc2)c2ccc(O)cc12 [No. 119, 2-Benzo[1.3]dioxol-5-yl-3-methyl-1-[4-(2-piperidin-1-yl-ethoxy)-benzyl]-1H-indol-5-ol] | – | – | −1% | −1% | 70 nM | –
6 | Cc1c(-c2ccc(OC(C)C)cc2)n(Cc2ccc(OCCN3CCCCC3)cc2)c2ccc(O)cc12 [No. 120, 2-(4-Isopropoxy-phenyl)-3-methyl-1-[4-(2-1-yl-ethoxy)-benzyl]-1H-indol-5-ol] | – | – | 1% | −1% | 100 nM | –
7 | Cc1c(-c2ccc(OC3CCCC3)cc2)n(Cc2ccc(OCCN3CCCCC3)cc2)c2ccc(O)cc12 [No. 122, 2-(4-Cyclopenyloxy-phenyl)-3-methyl-1-[4-(2-piperidin-1-yl-ethoxy)-benzyl]-1H-indol-5-ol] | 38.7 mg | 46.7 mg | 5% | 1% | 80 nM | –
8 | Cc1c(-c2ccc(C(F)(F)F)cc2)n(Cc2ccc(OCCN3CCCCC3)cc2)c2ccc(O)cc12 [No. 123, 3-Methyl-1-[4-(2-piperidin-1-yl-ethoxy)-benzyl]-2-(4-trifluoromethyl-phenyl)-1H-indol-5-ol] | 61.4 mg | 39.2 mg | 1% | −1% | – | –
9 | N#Cc1c(-c2ccc(O)cc2)n(Cc2ccc(OCCN3CCCCC3)cc2)c2ccc(O)cc12 [No. 138, 5-Hydroxy-2-(4-Hydroxy-phenyl)-1-[4-(2-piperidin-1-yl-ethoxy)-benzyl]-1H-indole-3-carbonitrile] | 37.9 mg | 28.4 mg | −1% | −2% | – | –
10 | Cc1c(-c2ccc(OC(=O)C(C)(C)C)cc2)n(Cc2ccc(OCCN3CCCCC3)cc2)c2ccc(OC(=O)C(C)(C)C)cc12 [No. 162, Di-pivalate ester of 2-(4-Hydroxy-phenyl)-3-methyl-1-[4-(2-piperidin-1-yl-ethoxy)-benzyl]-1H-indol-5-ol] | – | – | −13% | −14% | – | Receptor Binding IC50's (estrogen receptor [3]): Does not Bind
11 | C[C@]12CC[C@@H]3c4ccc(O)cc4CC[C@H]3[C@@H]1C[C@@H](O)[C@@H]2O [estriol] | – | – | – | – | – | ED50 of estrogenic activity by the alkaline phosphatase method (Ishikawa cells): 0.13 nM
12 | C[C@]12CC[C@@H]3c4ccc(O)cc4CC[C@H]3[C@@H]1CCC2=O [estrone] | – | – | – | – | – | ED50 of estrogenic activity by the alkaline phosphatase method (Ishikawa cells): 0.36 nM
13 | O=C(c1ccc(OCCN2CCCCC2)cc1)c1c(-c2ccc(O)cc2)sc2cc(O)ccc12 [raloxifene] | – | – | – | – | – | % Activation (Ishikawa alkaline phosphatase) with 1 nM 17β-estradiol (Ishikawa cells): 5% activity (5% with 1 nM 17β-estradiol); % Activation (Ishikawa alkaline phosphatase) (Ishikawa cells): 5% activity (5% with 1 nM 17β-estradiol)
